Broadly, the Ki is the equilibrium dissociation constant of an inhibitor or competing ligand from its target. A higher Ki goes with lower affinity. For orientation: IC50 means the point on the concentration scale where inhibition reaches its midpoint. Low values mean greater potency, high ones weaker potency.

Where a SMILES comes first, the peptide text is derived from it. Bridges are numbered along the chain shown (N, C = ends). A value given as a limit tells only on which side of the number the result lay.

One assay is filed under the species Homo sapiens. Briefly: Selectivity ratio of IC50 for nAChR to IC50 for human alpha7 nAChR.
Assay [1] addresses Neuronal acetylcholine receptor subunit alpha-7 (Mus musculus, UniProt P49582). Description: Displacement of [125I]alpha-Bungarotoxin from alpha7 nAchR in mouse hippocampal membranes. The class given is cell membranes, Hippocampus.
In assay [2] the target is Neuronal acetylcholine receptor subunit alpha-7 (Homo sapiens, UniProt P36544). Briefly: Antagonist activity at human alpha7 nAChR expressed in Xenopus oocyte. In kind it is functional.
Neuronal acetylcholine receptor subunit alpha-7 (Homo sapiens, UniProt P36544), sequence (P36544 whole entry): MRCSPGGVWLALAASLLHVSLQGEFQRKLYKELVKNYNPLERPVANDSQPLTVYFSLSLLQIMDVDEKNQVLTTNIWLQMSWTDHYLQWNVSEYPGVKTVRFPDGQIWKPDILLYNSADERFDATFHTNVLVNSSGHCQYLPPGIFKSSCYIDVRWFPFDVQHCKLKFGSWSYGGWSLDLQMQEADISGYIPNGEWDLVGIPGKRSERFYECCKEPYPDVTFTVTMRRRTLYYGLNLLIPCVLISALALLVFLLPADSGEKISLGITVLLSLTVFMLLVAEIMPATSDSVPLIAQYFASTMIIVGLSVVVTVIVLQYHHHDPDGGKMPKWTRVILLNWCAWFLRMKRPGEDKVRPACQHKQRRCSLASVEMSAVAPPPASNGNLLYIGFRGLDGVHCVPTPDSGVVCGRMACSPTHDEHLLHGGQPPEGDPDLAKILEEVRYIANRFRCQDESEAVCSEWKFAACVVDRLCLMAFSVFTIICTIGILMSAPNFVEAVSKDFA

Neuronal acetylcholine receptor subunit alpha-7 (Mus musculus, UniProt P49582), sequence (P49582 whole entry): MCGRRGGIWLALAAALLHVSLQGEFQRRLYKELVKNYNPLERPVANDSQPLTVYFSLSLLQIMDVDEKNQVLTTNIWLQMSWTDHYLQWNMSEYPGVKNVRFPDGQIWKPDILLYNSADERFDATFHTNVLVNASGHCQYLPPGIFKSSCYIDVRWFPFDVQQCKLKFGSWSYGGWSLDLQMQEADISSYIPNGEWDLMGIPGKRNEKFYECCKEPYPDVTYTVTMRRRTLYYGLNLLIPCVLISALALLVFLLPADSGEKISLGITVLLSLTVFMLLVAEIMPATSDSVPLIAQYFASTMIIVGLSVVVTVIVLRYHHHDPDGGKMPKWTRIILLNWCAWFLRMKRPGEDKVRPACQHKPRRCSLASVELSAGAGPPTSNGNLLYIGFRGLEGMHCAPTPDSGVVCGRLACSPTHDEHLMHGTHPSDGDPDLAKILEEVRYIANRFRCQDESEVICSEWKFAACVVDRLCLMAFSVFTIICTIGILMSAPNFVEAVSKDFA

As for `CC(C)C[C@@H]1NC(=O)[C@H](CCCNC(=N)N)NC(=O)[C@@H]2CSSC[C@H](NC(=O)[C@H](CCC(=O)O)NC(=O)[C@@H](N)CC(=O)O)C(=O)N[C@@H](CSSC[C@@H](C(=O)N[C@@H](CCCNC(=N)N)C(=O)N[C@@H](CCCNC(=N)N)C(=O)N[C@@H](CCCNC(=N)N)C(=O)O)NC(=O)[C@H](CC(=O)O)NC(=O)[C@H](Cc3cnc[nH]3)NC(=O)[C@@H]3CCCN3C(=O)[C@H](CC(N)=O)NC(=O)[C@H](CC(N)=O)NC1=O)C(=O)N[C@@H](CO)C(=O)N[C@@H](CC(N)=O)C(=O)N1CCC[C@H]1C(=O)N[C@@H](C)C(=O)N2` (H-DECCSNPACRLNNPHDCRRR-OH; disulfide 3-9, 4-17), the Ratio IC50 in the assay listed under Homo sapiens was greater than 800. The Ki in assay [1] came out at 7.04 nM. Also, the IC50 in assay [2] was determined as 1.09 nM.
